{"source": "patent US7166739B2", "about": "“Esters of monomethyl branched alcohols and process for preparing and using same in cosmetics and personal care products” (Finetex, Inc., priority 2004, dated 2007)", "key": {"[1]": {"experiment": "Solubility of esters in various solvents (1 gram of ester in 10 gm. solvent)"}, "[2]": {"experiment": "Spreading coefficient of esters (typical properties)", "format": "physicochemical", "design": "unit not given here", "method": "(§1) An analysis of the esters of the invention, i.e., Benzoate ester (Ref. No. 130-63); Octanoate Ester (Ref. No. 130-67); and Maleate Ester (Ref. No. 134-26), was conducted as to appearance, color, percentage water, acidity, saponification value, surface tension, spreading coefficient, freezing point, refractive index and specific gravity. The results are presented in Table I which identifies typical properties of the esters of the invention."}, "[3]": {"experiment": "Viscosity of esters (typical properties)", "format": "physicochemical", "settings": "@ 25° C.", "method": "as §1"}, "[4]": {"experiment": "Surface tension of esters (typical properties)", "format": "physicochemical", "method": "as §1"}}}
{"substance": "Di(C16–17 alkyl) maleate [Maleate Ester (134-26)]", "values": [{"measurement": "Solubility in Dow Corning Fluid 245/345", "setting": "[1]", "value": "+"}, {"measurement": "Solubility in Ethanol", "setting": "[1]", "value": "+"}, {"measurement": "Solubility in Finester EH-25", "setting": "[1]", "value": "+"}, {"measurement": "Solubility in Finsolv BOD", "setting": "[1]", "value": "+"}, {"measurement": "Solubility in Finsolv EB", "setting": "[1]", "value": "+"}, {"measurement": "Solubility in Finsolv EMG-20", "setting": "[1]", "value": "−"}, {"measurement": "Solubility in Finsolv P", "setting": "[1]", "value": "+"}, {"measurement": "Solubility in Finsolv PG-22", "setting": "[1]", "value": "+"}, {"measurement": "Solubility in Finsolv PL-62", "setting": "[1]", "value": "+"}, {"measurement": "Solubility in Finsolv PL-355", "setting": "[1]", "value": "+"}, {"measurement": "Solubility in Finsolv SB", "setting": "[1]", "value": "+"}, {"measurement": "Solubility in Finsolv TN", "setting": "[1]", "value": "+"}, {"measurement": "Solubility in Glycerine", "setting": "[1]", "value": "−"}, {"measurement": "Solubility in IPM/IPP (Witconol 2314/2316)", "setting": "[1]", "value": "+"}, {"measurement": "Solubility in Mineral Oil", "setting": "[1]", "value": "+"}, {"measurement": "Solubility in Propylene Glycol", "setting": "[1]", "value": "−"}, {"measurement": "Solubility in Water", "setting": "[1]", "value": "−"}, {"measurement": "Spreading Coefficient", "setting": "[2]", "value": 34.0}, {"measurement": "Viscosity", "setting": "[3]", "value": 80, "unit": "cps"}, {"measurement": "Surface Tension", "setting": "[4]", "value": 30.5, "unit": "dynes/cm"}]}
